Assays:
ABCF1 [1] = assay: Effect of psylocibin, psylocin and analogs on ABCF1 transcription in RAW264.7, qPCR; assay type: cell-based; conditions: RAW264.7, 10 nM, 100 nM, 500 nM, normalized against GAPDH (FIG. 2)
Description: FIG. 2—illustrates the effect of psylocibin, psylocin and their analogs on ABCF1 transcription in a macrophage cell line. Briefly, the Macrophage cell line RAW264.7 (ATCC) were grown to 80% confluency in growth media (DMEM+ 10% FBS+ glutamine). Dilutions of psylocibin, psylocin and their analogs were made at desired final concentrations for a Dose response experiment. The concentrations' used for this experiment are: 10 nM, 100 nM, 500 nM for Psilocin, Psylocibin, 4-Acetoxy-N, N-dimthyltryptamine, O-Acetyl Psilocin Fumerate, and 4-acetoxyindole. The cells were incubated for 2 hours and then harvested for total RNA, which was extracted for real time RT-PCR specific for ABCF1. Untreated cells were used as negative control and Escitalopram at 0.3 mM was used as a positive control to activate ABCF1 expression for all the experiments. ES=escitalopram; PSYB=Psylocibin; PSIC=Psilocin; DMT=4-Acetoxy-N, N-dimthyltryptamine; APF=O-Acetyl Psilocin Fumerate, and AOI=4-acetoxyindole.
Preparation of Cells: • 1. Macrophage cell line RAW264.7 (ATCC) were grown to 80% confluency in growth media (DMEM+10% FBS+glutamine). • 2. Dilutions of the drugs were made at desired final concentrations for a Dose response experiment. […]
• 1. […] Normalized against the expression level of GAPDH, the fold change expression level of ABCF1 was calculated and tabulated for all treatment conditions.

ABCF1 [2] = conditions: peripheral blood mononuclear cells of patients responding to escitalopram treatment; cited from earlier work
ABCF1 [3] = assay: Escitalopram induction of ABCF1 in RAW macrophages, real time RT-PCR; assay type: cell-based
Description: (§1) FIG. 1—illustrates that Escitalopram induces ABCF1 in a Macrophage cell line: RAW macrophages were plated at 1×10^5 cells/well and cultured for 2 days. The cells were incubated with 0.3 mM Escitalopram for 1 hour, and then harvested for total RNA, which was extracted for real time RT-PCR specific for ABCF1 and IL-4. CT values were normalized with CT value for the housekeeping gene from the DMSO control. The difference in the expression after drug treatment is consistent with polarization towards an M2-like phenotype (data were consistent in 3 separate experiments).
(§2) Additionally, noradrenergic or serotonin-norepinephrine reuptake inhibitors used to treat major depressive disorder have anti-inflammatory properties in vitro^55. […] Mechanistically, antidepressants likely mediate this through a reduction in pro-inflammatory cytokines IL-1b, TNFα, and IL-6 with a reciprocal increase in anti-inflammatory cytokines including […]. Studies have also shown that single nucleotide polymorphisms in IL-6 and IL-11, and mRNA levels of TNFα, are predictive of clinical response to the SSRI, escitalopram^63,64. Also, escitalopram modulates mRNA levels of cytokines in mouse brain^65 and decreases cytokine mRNA levels in the circulating immune cells of depression patients^60. […]

IL-4 = assay: Escitalopram induction of IL-4 in RAW macrophages, real time RT-PCR; assay type: cell-based; conditions: RAW macrophage cell line, 0.3 mM Escitalopram, 1 hour, normalized to housekeeping gene, vs DMSO control (FIG. 1)
Description: as §1, §2

| SMILES | ABCF1 transcription (in words) (ABCF1 [1]) | transcription of ABCF1 in PBMCs (ABCF1 [2]) | induction of ABCF1 expression (ABCF1 [3]; RAW macrophage cell line, 0.3 mM Escitalopram, 1 hour, normalized to housekeeping gene, vs DMSO control (FIG. 1)) | ABCF1 induction in a macrophage cell line (in words) (ABCF1 [3]; RAW macrophages, 0.3 mM, 1 hour (FIG. 1 legend)) | induction of IL-4 expression (IL-4) |
| --- | --- | --- | --- | --- | --- |
| CN(C)CCc1c[nH]c2cccc(O)c12 [psylocin, 4-hydroxy-N,N-dimethyltryptamine] | upregulate ABCF1 transcription |  |  |  |  |
| CN(C)CCC[C@@]1(c2ccc(F)cc2)OCc2cc(C#N)ccc21 [Escitalopram] |  | increased the transcription | approximately 20 fold | induces ABCF1 | approximately 5 fold |

— US20230405026A1, “A Method of Treating Depression by Immune Modulation” (Mynd Life Sciences Inc., priority 2020, published 2023)
